Laboratory results taken from article PMC3261944, “The in Vitro Estrogenic Activities of Polyfluorinated Iodine Alkanes” (Environmental Health Perspectives, 2011).
Where two headings read alike, the source gives them in different places.

Tests used:
[1] = system: MCF-7BUS cells; test: E-screen assay (MCF-7BUS cell proliferation, WST-1); type: cell-based, Human; conditions: for E-screen Maximum induction (%): percentage of the maximum proliferation effect of tested compound to that of E2, 6 days exposure; for EC50: Homo sapiens, MCF7/BUS, 144 h, read-out: E-screen EC50; for E-screen Relative potency: ratio of EC50 of E2 to that of test compound; for Proliferation / estrogenic effect in the E-screen assay (in words): within the tested concentration ranges
Method: (§1) Cell culture. Human MCF-7BUS breast adenocarcinoma cells and MVLN cells were cultured in 100-mm culture dishes in a humidified atmosphere of 5% CO2 at 37°C. Cells were maintained in Dulbecco’s modified Eagle’s medium (DMEM)/F-12 (Hyclone, Logan, UT, USA) containing 10% fetal bovine serum, 100 U/mL streptomycin-penicillin, 2 mM L-glutamine, and 1% insulin-transferrin-selenium supplement (all from Gibco, Grand Island, NY, USA).
E-screen assay. MCF-7BUS cells were kindly provided by A.M. Soto and C. Sonnenschein (Tufts University School of Medicine, Boston, MA, USA). In response to ERα agonists, the mitotic effect leads to the proliferation of MCF-7BUS cells. […] Cells were trypsinized and plated into the interior 60 wells of 96-well plates at the density of 3,000 cells/well. Before each experiment, cells were starved in steroid-free (SF) medium for 48 hr to minimize the basal hormonal activity during assays. SF medium consisted of phenol red–free DMEM/F-12 (Hyclone) supplemented with 5% dextran-charcoal-treated fetal bovine serum (Hyclone), 100 U/mL streptomycin-penicillin, and 2 mM L-glutamine. […] We used a WST-1 proliferation kit (Roche Diagnostics, Mannheim, Germany) to assess proliferation after 6 days of exposure according to the kit instructions. The WST-1 assay is based on the enzymatic cleavage of the tetrazolium salt WST-1 to formazan by cellular mitochondrial dehydrogenases present in viable cells. The absorbance of the WST-1 solution was detected by a microplate reader (Varioskan Flash, Thermo Fisher Scientific, Waltham, MA, USA) at 450 nm, with the reference wave length at 690 nm. The cell proliferation effect was calculated from the solvent control (0.1% ethanol)-corrected absorbance and expressed as the percentage of maximal absorbance of the positive control. Three replicates were used in each experiment.
(§2) The concentration–response analyses were performed with four-parameter logistic curve regression analysis according to the following formula:
(§3) y = minimum + (maximum – minimum) ÷ [1 + (x/EC50)^Hill slope], [1]
(§4) where y is the response value, x is the log concentration of the test compound, and EC50 is the concentration that induces half of the maximum proliferation effect or luciferase activity.
EC50 values were calculated from this nonlinear regression model. EC20 were calculated as […]

[2] = target: T1, ER (Homo sapiens, UniProt P03372); test: MVLN assay (estrogen-responsive luciferase reporter transactivation); type: cell-based; conditions: for MVLN assay Maximum induction (%): percentage of the maximum induction (luciferase) of tested compound to that of E2, 2 days exposure; for Luciferase activity on coexposure with OHT: OHT 10 nM coexposed with 100 μM PFHxI, 100 μM PFOI, 100 μM PFBDI, 20 μM PFHxDI or 40 μM PFODI; for MVLN assay Relative potency: footnote: ratio of EC50 of E2 to that of test compound, text: based on EC20; for MVLN assay EC20: luciferase activity, 2 days, from Hill slope and EC50; for Luciferase induction / estrogenic effect in the MVLN assay (in words): within the tested concentration ranges
T1 construct: This cell line was stably transfected with the luciferase reporter gene and estrogen-responsive element derived from the Xenopus vitellogenin A2 gene; endogenous in cells; host or cells: MVLN cells (provided by J.P. Giesy)
T1 sequence (P03372 1-595): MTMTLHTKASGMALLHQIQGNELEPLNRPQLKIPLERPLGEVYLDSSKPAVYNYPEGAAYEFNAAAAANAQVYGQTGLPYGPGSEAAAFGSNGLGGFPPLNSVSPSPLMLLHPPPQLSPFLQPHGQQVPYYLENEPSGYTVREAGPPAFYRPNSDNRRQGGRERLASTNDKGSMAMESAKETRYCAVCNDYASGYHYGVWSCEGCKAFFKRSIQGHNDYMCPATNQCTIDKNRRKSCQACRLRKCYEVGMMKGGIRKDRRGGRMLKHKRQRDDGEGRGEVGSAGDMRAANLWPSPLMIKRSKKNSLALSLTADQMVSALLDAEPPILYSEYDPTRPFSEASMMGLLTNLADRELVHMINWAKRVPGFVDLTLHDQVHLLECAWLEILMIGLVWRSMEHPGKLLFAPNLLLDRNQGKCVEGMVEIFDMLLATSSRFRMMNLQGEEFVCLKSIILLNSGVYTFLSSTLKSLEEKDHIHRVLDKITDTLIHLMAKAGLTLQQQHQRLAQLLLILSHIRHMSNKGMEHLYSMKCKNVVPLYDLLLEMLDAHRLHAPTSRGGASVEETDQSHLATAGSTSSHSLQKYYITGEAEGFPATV
Method: as §1
MVLN assay. The MVLN cell line was kindly provided by J.P. Giesy (Michigan State University, East Lansing, MI, USA). This cell line was stably transfected with the luciferase reporter gene and estrogen-responsive element derived from the Xenopus vitellogenin A2 gene. […] Cells were seeded in the interior 60 wells of a 96-well ViewPlate (Packard Instrument Company, Boston, MA, USA) at a density of 7 × 10^4 cells/well, starved in SF medium for 48 hr, and exposed to test compounds for 2 days. […] Luciferase activity was measured with the LucLite kit (Packard Instruments) according to the manufacturer’s protocol. We measured luminescence by microplate reader (Varioskan Flash) and integrated the luminescence signal for 10 sec. Total protein content was measured by the Bradford assay (Tiangen, Beijing, China) to normalize luminescent units. The results are given as relative luminescent unit per microgram protein. The maximal induction of positive control (corrected for solvent control, 0.1–0.2% ethanol) was set as 100%, and the responses of other chemicals were converted to a percentage of the maximum level. Three replicates were used in each experiment. The cytotoxicity of tested chemicals was examined by WST-1 kit in parallel and routinely observed under microscope to identify the exposure concentration range.
as §2, §3, §4
EC50 values were calculated from this nonlinear regression model. EC20 were calculated as
ECx = [x/(100 – x)]^(1/Hill slope) × EC50, [2]

[3] = system: EGR3; test: Expression of estrogen-responsive gene EGR3 (quantitative RT-PCR); type: cell-based, Human; conditions: MCF-7 cells, 48 hr, vs 0.1% ethanol; 50 μM PFBI, PFHxI, PFOI, PFBDI, PFOA, PFOC, PFOB, 1-iodohexane, 4:2 FTI, 6:2 FTI; 40 μM PFDI, PFDoI, PFODI, 8:2 FTI, 10:2 FTI; 20 μM PFHxDI; 100 pM E2
Method: RNA isolation and reverse transcription polymerase chain reaction (RT-PCR). MCF-7BUS cells were seeded in six-well plates at the density of 1.0 × 10^6 cells per well, starved in SF medium for 48 hr, and exposed to test compounds for 48 hr. First, cells were rinsed twice with cold phosphate-buffered saline, and total RNA was isolated using Trizol reagent (Invitrogen Inc., Carlsbad, CA, USA) following the manufacturer’s protocol. The 260 nm and 280 nm absorbance reading of total RNA was performed using a Nanodrop spectrophotometer (Thermo Scientific, Waltham, MA, USA). The concentration of RNA was quantified by the reading at 260 nm.
We used a two-step quantitative RT-PCR to quantify gene expression. Total RNA was converted to cDNA using M-MLV (Moloney murine leukemia virus) reverse transcriptase (Promega, Madison, WI, USA) with oligo dT(15), following the manufacturer’s instructions. The final cDNA solution was diluted five times with DNase/RNase-free water (Gibco). Quantitative PCR was performed with a Stratagene MX3005 thermal cycler (Stratagene, La Jolla, CA, USA). PCR reaction mixtures (25 μL) contained 12.5 μL GoTaq Green Master Mix (Promega), 2 μL diluted cDNA, and 0.2 μM sense/antisense primers. The thermal cycle was 5 min at 95°C, followed by 45 cycles of 15 sec at 95°C, 30 sec at 55°C, and 30 sec at 72°C. The primer sequences of early growth response protein 3 (EGR3) were derived from [Terasaka et al. (2004)]. We designed the primers of internal gene β-actin and trefoil factor 1 (TFF1; pS2) with Primer Premier 5 software (Premier Biosoft International, Palo Alto, CA, USA). The primer sequences were as follows: for β-actin (NM_001101), 5´-CACTCT[…]TCCTTCC-3´ (forward) and 5´-[…][…]-3´ (reverse); for EGR3 (NM_004430), 5´-CCATGATTC[…]-3´ (forward) and 5´-GTGGATCTGCTTGTCTTTGAATG-3´ (reverse); and for TFF1 (NM_003225), 5´-AGAAGCG […]-3´ (forward) and 5´-[…][…]-3´ (reverse). The quantification of target gene expression was based on a comparative cycle threshold (Ct) value. We normalized the expression level of each target gene to its reference gene β-actin. The fold change of the target genes was analyzed by the 2^−ΔΔCt method ([Livak and Schmittgen 2001]). We used melting curve analysis and agarose gel electrophoresis to verify the correct PCR products.

| EC50 ([1]; MCF-7BUS proliferation, 6 days) [nM] | SMILES | E-screen Maximum induction (%) [1] | MVLN assay Maximum induction (%) [2] | EC50 [1] [nM] | E-screen Relative potency [1] | Proliferation / estrogenic effect in the E-screen assay (in words) [1] | EC50 [2] [µM] | Luciferase activity on coexposure with OHT [2] | MVLN assay Relative potency [2] | MVLN assay EC20 [2] [µM] | Luciferase induction / estrogenic effect in the MVLN assay (in words) [2] | EGR3 mRNA expression, fold up-regulation [3] [fold] |
| --- | --- | --- | --- | --- | --- | --- | --- | --- | --- | --- | --- | --- |
| – | FC(F)(F)C(F)(F)C(F)(F)C(F)(F)C(F)(F)C(F)(F)CCI [6:2 FTI, 1H,1H,2H,2H-perfluorooctyl iodide] | NDd (The maximum relative proliferation effect was < 7%) | NDe (The maximum relative luciferase activity was < 5%) | – | – | – | – | – | – | – | – | – |
| – | FC(F)(F)C(F)(F)C(F)(F)C(F)(F)C(F)(F)C(F)(F)C(F)(F)C(F)(F)I [PFOI, 1-iodoperfluorooctane] | 101% | 25% | 1150 | 2.7 × 10^–6 | produced full concentration–response curves | 35.1 | marked reduction of luciferase activity | 0.2 × 10^–6 | 20.4 | induced luciferase activity in a dose-related manner | 3.6 |
| – | FC(F)(I)C(F)(F)C(F)(F)C(F)(F)C(F)(F)C(F)(F)I [PFHxDI, Dodecafluoro-1,6-diiodohexane] | 100% | 73% | 7.5 | 4.2 × 10^–4 | – | 1.13 | marked reduction of luciferase activity | 1.1 × 10^–5 | 0.38 | – | 9.1 |
| – | FC(F)(F)C(F)(F)C(F)(F)C(F)(F)C(F)(F)C(F)(F)C(F)(F)C(F)(F)CCI [8:2 FTI, 1H,1H,2H,2H-perfluorodecyl iodide] | NDd (The maximum relative proliferation effect was < 7%) | NDe (The maximum relative luciferase activity was < 5%) | – | – | – | – | – | – | – | – | – |
| – | FC(F)(I)C(F)(F)C(F)(F)C(F)(F)I [PFBDI, Octafluoro-1,4-diiodobutane] | 97% | 21% | 1450 | 2.2 × 10^–6 | – | 29.6 | marked reduction of luciferase activity | 0.3 × 10^–6 | 13.8 | – | 2.4 |
| – | FC(F)(F)C(F)(F)C(F)(F)C(F)(F)CCI [4:2 FTI, 1H,1H,2H,2H-perfluorohexyl iodide] | NDd (The maximum relative proliferation effect was < 7%) | NDe (The maximum relative luciferase activity was < 5%) | – | – | – | – | – | – | – | – | – |
| – | FC(F)(F)C(F)(F)C(F)(F)C(F)(F)C(F)(F)C(F)(F)C(F)(F)C(F)(F)C(F)(F)C(F)(F)CCI [10:2 FTI, 1H,1H,2H,2H-perfluorododecyl iodide] | NDd (The maximum relative proliferation effect was < 7%) | NDe (The maximum relative luciferase activity was < 5%) | – | – | – | – | – | – | – | – | – |
| – | FC(F)(I)C(F)(F)C(F)(F)C(F)(F)C(F)(F)C(F)(F)C(F)(F)C(F)(F)I [PFODI, Hexadecafluoro-1,8-diiodooctane] | 105% | 38% | 43.3 | 7.2 × 10^–5 | – | 2.87 | marked reduction of luciferase activity | 3.8 × 10^–6 | 1.07 | – | 11.2 |
| 0.00312 | C[C@]12CC[C@@H]3c4ccc(O)cc4CC[C@H]3[C@@H]1CC[C@@H]2O [E2, 17β-estradiol, reference compound] | 100% | – | – | – | – | – | – | – | – | – | – |
| – | FC(F)(F)C(F)(F)C(F)(F)C(F)(F)C(F)(F)C(F)(F)I [PFHxI, 1-iodoperfluorohexane] | 99% | 47% | 630 | 4.9 × 10^–6 | produced full concentration–response curves | 26.7 | marked reduction of luciferase activity | 0.29 × 10^–6 | 14.1 | induced luciferase activity in a dose-related manner | 2.4 |
